Laboratory results: patent US5444042A, “Method of treatment of neurodegeneration with calpain inhibitors” (Cortex Pharmaceuticals, priority 1994, dated 1995)
Where a SMILES comes first, the peptide text is derived from it. The star is where a group is joined. Boc = CC(C)(C)OC(=O)*; CH2Cl = ClC*

Tests used:
[1] = target: Cathepsin B (Bos taurus, UniProt P07688); test: Cathepsin B inhibition, Z-Arg-Arg-AFC (Table PKC1); type: biochemical; details: pH 6.0 phosphate buffer, substrate Z-Arg-Arg-AFC; read-out: Ki CB (Cathepsin B)
Protocol: (§1) Various concentrations of inhibitors in dimethylsulfoxide (DMSO) were added to the assay mixture, which contained buffer and substrate. The reaction was started by the addition of the enzyme and the hydrolysis rates were followed spectrophotometrically or fluorimetrically. 88 mM KH2 PO4, 12 mM Na2 HPO4, 1.33 mM EDTA, 2.7 mM cysteine, pH 6.0 was used as a buffer for cathepsin B; and 20 mM Hepes, 10 mM CaCl2, 10 mM β-mercaptoethanol, pH 7.2 buffer was utilized for calpain I and calpain II.
(§2) All peptide thioester hydrolysis rates were measured with assay mixtures containing 4,4'-dithiodipyridine [e324=19800 M-1 cm-1; Grasetti & Murray, Arch. Biochem. Biophys. 119, pp 41-49 (1967)]. Papain was assayed with Bz-Arg-AMC or Bz-Arg-NA [Kanaoka et al., Chem. Pharm. Bull. 25, 3126-3128 (1977)], and the AMC (7-amino-4-methylcoumarin) release was followed fluorimetrically (excitation at 380 nm, and emission at 460 nm). Cathepsin B was assayed with Z-Arg-Arg-AFC [Barrett and Kirschke, Methods Enzymol. 80, 535-561 (1981)], and the AFC (7-amino-4-trifluoromethylcoumarin) release was followed fluorimetrically (excitation at 400 nm, and emission at 505 nm). Calpain I from human erythrocytes and calpain II from rabbit were assayed using Suc-Leu-Tyr-AMC [Sasaki et al., J. Biol. Chem. 259, 12489-12494 (1984), hereby incorporated by reference], and the AMC (7-amino-4-methylcoumarin) release was followed fluorimetrically (excitation at 380 nm, and emission at 460 nm). Enzymatic hydrolysis rates were measured at various substrate and inhibitor concentrations, and Ki values were determined by Dixon plot.

[2] = target: calpain II from rabbit; test: Calpain II inhibition, Suc-Leu-Tyr-AMC (Table PKC1); type: biochemical; details: 20 mM Hepes, 10 mM CaCl2, 10 mM β-mercaptoethanol, pH 7.2; read-out: Ki CII (Calpain II)
Protocol: as §1, with “Our discovery of Peptide Keto-Compounds effective as Calpain Inhibitors was made through assay of the Peptide Keto-Compounds as reversible inhibitors. Various” for “Various”
as §2

[3] = tested on: N18-RE-105 cells; test: Glutamate-induced cell death, MTT conversion (Example 5); type: cell-based; details: 5 mM glutamate, 19 hours; for blue formazan product relative to control without glutamate: inhibitor 3 μg/ml
Protocol: Stock cultures of N18-RE-105 cells were maintained in Dulbecco's modified Eagle's medium (DMEM) containing 10% fetal bovine serum (FBS) and supplemented with hypoxanthine, aminopterin and thymidine (HAT). Subconfluent cultures were split and plated into 96-well plates. Twenty-four hours after plating the cells were exposed to fresh media containing glutamate and various concentrations of Calpain inhibitors. Control cells were not treated with glutamate. Conversion of MTT was measured 19 hours later as described. Nineteen hours after the onset of exposure, cell viability was quantitated by measuring the extent to which the cells convert 3(4,5-dimethylthiazol-2-yl)-2-5-diphenyltetrazolium bromide (MTT) to a blue formazan product, which occurs in the mitochondria of living but not dead cells (Pauwels et al., 1988). A higher absorbance is indicative of greater cell viability.

[4] = target: Calpain II; test: Calpain II KI (Table 1B(ii)); type: biochemical
Source text: (§3) We tested the ability of an additional group of Peptide Keto-Compounds to inhibit several proteases in order to evaluate their specificity for Calpain.

[5] = target: T1, Papain (Carica papaya, UniProt P00784); test: Papain KI (Table 1B(ii)); type: biochemical
T1 sequence (P00784 134-345): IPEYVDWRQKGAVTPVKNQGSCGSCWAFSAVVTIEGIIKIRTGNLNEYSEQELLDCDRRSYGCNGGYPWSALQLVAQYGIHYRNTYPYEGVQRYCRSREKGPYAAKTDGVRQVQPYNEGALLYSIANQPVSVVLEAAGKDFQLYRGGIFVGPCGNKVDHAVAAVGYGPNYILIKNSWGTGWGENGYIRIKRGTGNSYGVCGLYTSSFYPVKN
Source text: as §3

[6] = target: Chym (Bos taurus, UniProt P00766); test: Chym KI (Table 1B(ii)); type: biochemical
Source text: as §3

[7] = tested on: hippocampal slices; test: Hippocampal slice evoked potential recovery after anoxia (Example 7B); type: cell-based, rat
Protocol: As in Example 7A, hippocampal slices (400 μm) were prepared from Sprague Dawley rats (6-7 weeks) and maintained in an interface chamber at 35° C. using conventional techniques, i.e. the lower surface of the slice received a constant perfusion (0.5 ml/min) of an artificial cerebrospinal fluid (ACSF), while the upper surface was exposed to a moist atmosphere of O2 :CO2 (95%:5%) exchanged at a rate of 2 L/min. The ACSF medium contains (in mM): NaCl (124), KCl (3), KHPO4 (1.25), MgSO4 (2.5), CaCl2 (3.4), NaHCO3 (26) and D-Glucose (10). Field excitatory post-synaptic responses were recorded from stratum radiatum of CA1b in response to stimulation of Schaffer-commissural fibers in CA1a or CA1c. The depth of the recording electrode was optimized and evoked responses were collected at a rate of one evoked response every 30 seconds.
After establishing a stable baseline of evoked responses (approximately 10 minutes), ACSF containing Calpain Inhibitor was washed into the chamber and slices were incubated for a period of one hour. After incubation, evoked responses were again recorded and the change in the amplitude of the responses from baseline levels was noted. No effect of the inhibitors tested on baseline evoked responses was observed.
For anoxia experiments, incubation in the drug-containing medium was followed by replacement of the O2 :CO2 (95%:5%) atmosphere with N2 :CO2 (95%:5%). Slices were exposed to this anoxic environment until disappearance of the pre-synaptic fiber volley and for two minutes (severe anoxia) longer (total time in anoxic environment approximately 7-8 minutes in control case). Effects of Calpain Inhibitors on the functional recovery of the slices after the anoxic episode were then measured. Recovery of the evoked potential (EPSP) slope and amplitude by the drug treated slices can be compared to control slices to determine the relative efficacy of various Calpain Inhibitors.

[8] = Concentration 100, ten minutes anoxia

SMILES	Ki [1]	Ki [2]	blue formazan product relative to control without glutamate [3]	Ki [4]	Ki [5]	Ki [6]	other results
CCC(NC(=O)[C@@H]1CCCN1C(=O)[C@H](C)NC(=O)[C@H](C)NC(=O)CCC(=O)OC)C(=O)C(=O)OC (mixture of isomers) [MeO-Suc-Ala-Ala-Pro-Abu-COOMe, MeO-Suc-Ala-Ala-Pro-DL-Abu-CO2 Me]	6 µM						
CCOC(=O)C(=O)C(CC)NC(=O)[C@H](C)NC(=O)[C@H](C)NC(=O)OCc1ccccc1 (mixture of isomers) [Z-Ala-Ala-DL-Abu-COOEt, Z-Ala-Ala-DL-Abu-CO2 Et]	10 µM	200000 nM	≥ 100%				
CCOC(=O)C(=O)[C@H](CC)NC(=O)[C@H](CC(C)C)NC(=O)OCc1ccccc1 (racemic) [Z-Leu-Abu-COOEt, Z-Leu-DL-Abu-COOEt]		400 nM		400 nM	220 µM	> 100 µM	% Recovery of synaptic transmission after anoxia [7, 8]: 55%; recovery of EPSP amplitude from severe anoxia (FIG. 4) ([7]; severe anoxia, 2 minutes post fiber volley disappearance): superior to that seen with CI1
CCCC(NC(=O)[C@H](CC(C)C)NC(=O)OCc1ccccc1)C(=O)C(=O)OCC (mixture of isomers) [Z-Leu-Nva-COOEt, Z-Leu-DL-Nva-COOEt]	30 µM	1200 nM		1200 nM	150 µM	160 µM	
CC(C)CC(NC(=O)CNC(=O)OC(C)(C)C)C(=O)NC(Cc1ccccc1)C(=O)CCl (stereo not drawn) [Boc-Gly-Leu-Phe-CH2 Cl] (Boc-Gly-Leu-Phe-CH2Cl; configuration not given here)							% Recovery of synaptic transmission after anoxia ([7]; Concentration 50, ten minutes anoxia): 30%
N=C(N)SCCCOc1oc(=O)c2ccccc2c1Cl [CiTprOIC, 4-chloro-3-(3-isothiureidopropoxy)isocoumarin]			≥ 100%				
CC(=O)N[C@@H](CC(C)C)C(=O)N[C@@H](CC(C)C)C(=O)N[C@H](C=O)CCCNC(=N)N [Leupeptin, Ac-Leu-Leu-Arg-H, reference compound]							protection against glutamate toxicity ([3]; leupeptin 5 μg/ml): protect N18-RE-105 cells against glutamate toxicity
N=C(N)SCCCOc1oc(=O)c2cc(N)ccc2c1Cl [NH2 -CiTPrOIC (ACITIC), 7-amino-4-chloro-3-(3-isothiureidopropoxy)isocoumarin]			≥ 100%				% Recovery of synaptic transmission after anoxia ([7]; Concentration 20, ten minutes anoxia): 60%
CCCCC(NC(=O)C(CC(C)C)NC(=O)OCc1ccccc1)C(=O)C(=O)OCC (stereo not drawn) [Z-Leu-Nle-COOEt, Z-Leu-NLeu-CO2 Et]		180 nM		180 nM	190 µM		
CCOC(=O)C(=O)C(Cc1ccccc1)NC(=O)C(CC(C)C)NC(=O)OCc1ccccc1 (stereo not drawn) [Z-Leu-Phe-COOEt]		400 nM		400 nM	75 µM	0.025 µM	% Recovery of synaptic transmission after anoxia [7, 8]: 38%; period of anoxia required to produce fiber volley disappearance (FIG. 6) ([7]; hippocampal slices): substantially lengthens the period of exposure to anoxia required to produce FVD
